Measurements: EP0547708A1, “Saccharin derivative proteolytic enzyme inhibitors” (STERLING WINTHROP INC., priority 1991, dated 1993)

What follows are compounds tested against T1, human leukocyte elastase (Homo sapiens, UniProt P08246) (assay: Inhibition of human leukocyte elastase in vitro (Ki* = koff/kon)). Details: Ki* = koff/kon (rate of reactivation of the enzyme divided by rate of inactivation); koff and kon measured, Ki* then calculated.
T1 sequence (P08246 30-267): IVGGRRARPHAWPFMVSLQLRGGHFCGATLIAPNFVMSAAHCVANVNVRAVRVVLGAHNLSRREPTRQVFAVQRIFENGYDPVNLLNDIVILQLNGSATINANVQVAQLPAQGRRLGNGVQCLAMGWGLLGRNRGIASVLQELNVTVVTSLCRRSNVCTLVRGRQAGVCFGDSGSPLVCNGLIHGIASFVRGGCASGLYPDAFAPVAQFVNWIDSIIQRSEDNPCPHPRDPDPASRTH
Format: biochemical
Description: Ki*, which is defined as the rate of reactivation of the enzyme divided by the rate of inactivation of the enzyme (koff/kon), was therefore determined instead. The values of koff and kon were measured and Ki* was then calculated.
The value of kon was determined by measuring the enzyme activity of an aliquot of the enzyme as a function of the time after addition of the test compound (inhibitor). […] The value of kon was then obtained by the equation kon = kobs /[I] [formula] wherein [I] is the concentration of the inhibitor. The value of koff was similarly determined, and Ki* was then obtained by the equation Ki * = koff /kon [formula] .
`CC(C)c1cccc2c1C(=O)N(COC1=CC(=O)OC1)S2(=O)=O` [Example 1A, 2-[(2,5-dihydro-5-oxo-3-furanyl)oxymethyl]-4-isopropylsaccharin] was tested, and the Ki was 0.4 nM. For `CC(C)c1cccc2c1C(=O)N(COc1cc(=O)oc3ccccc13)S2(=O)=O` [Example 1B], the Ki was 0.22 nM. Compound `CC(C)c1cccc2c1C(=O)N(COc1cc(=O)n(C)c3ccccc13)S2(=O)=O` [Example 1C] has a Ki of 0.7 nM. For `Cc1cc(OCN2C(=O)c3c(C(C)C)cccc3S2(=O)=O)cc(=O)o1` [Example 1D], the Ki was 0.25 nM. `Cc1cc(OCN2C(=O)c3c(C(C)C)cccc3S2(=O)=O)c(C(=O)c2ccccc2)c(=O)o1` [Example 1E] was tested, and the Ki was 0.035 nM. `CC(C)c1cccc2c1C(=O)N(COc1cc(-c3ccccc3)oc(=O)c1)S2(=O)=O` [Example 1F] gave a Ki of 0.22 nM. Compound `COc1cc(C(C)C)c2c(c1)S(=O)(=O)N(COC1=C(Cc3ccccc3)C(=O)OC1(C)C)C2=O` [Example 1O] has a Ki of 0.016 nM. `COc1cc(C(C)C)c2c(c1)S(=O)(=O)N(COC1=C(CN3CCOCC3)C(=O)OC1)C2=O` [Example 1P] gave a Ki of 0.041 nM. In the case of `COc1cc(C(C)C)c2c(c1)S(=O)(=O)N(COc1c(C(C)=O)c(=O)n(-c3ccccc3)c3ccccc13)C2=O` [Example 3A, 2-(1-phenyl-3-acetylcarbostyryl-4-yl)oxymethyl-4-isopropyl-6-methoxysaccharin], the Ki is reported as 0.43 nM. In the case of `COc1cc(C(C)C)c2c(c1)S(=O)(=O)N(COc1c(C(C)=O)c(=O)n(C)c3ccccc13)C2=O` [Example 3B, 2-(1-methyl-3-acetylcarbostyryl-4-yl)oxymethyl-4-isopropyl-6-methoxysaccharin], the Ki is reported as 0.27 nM. `COc1cc(C(C)C)c2c(c1)S(=O)(=O)N(COC1=CC(=O)OC1(C)C)C2=O` [Example 4E] showed a Ki of 0.093 nM. Compound `COc1cc(C(C)C)c2c(c1)S(=O)(=O)N(COC1=C(Oc3ccccc3)C(=O)N(c3ccccc3)C1)C2=O` [Example 4F] has a Ki of 0.06 nM. With `COc1cc(C(C)C)c2c(c1)S(=O)(=O)N(COC1=C(N3CCCCC3)C(=O)N(c3ccccc3)C1)C2=O` [Example 4G] the Ki was 0.2 nM. `COc1cc(C(C)C)c2c(c1)S(=O)(=O)N(COc1nc3ccccn3c(=O)c1CN1CCOCC1)C2=O` [Example 5, 2-[3-(4-morpholinylmethyl)-4-oxo-4H-pyrido[1,2-a]pyrimidin-2-yl]oxymethyl-4-isopropyl-6-methoxysaccharin] gave a Ki of 0.23 nM. `COc1cc(C(C)C)c2c(c1)S(=O)(=O)N(COC1=C(C)C(=O)C(C)=C(C)C1=O)C2=O` [Example 6, 2-(3,5,6-trimethyl-1,4-dioxo-2,5-cyclohexadien-2-yl)oxymethyl-4-isopropyl-6-methoxysaccharin] gave a Ki of 0.92 nM. `COc1cc(C(C)C)c2c(c1)S(=O)(=O)N(COC1=C(C(C)=O)C(=O)c3ccoc3C1=O)C2=O` [Example 7, 2-(5-acctyl-4,7-dihydro-4,7-dioxobenzofuran-6-yl)oxymethyl-4-isopropyl-6-methoxysaccharin] gave a Ki of 17 nM.
